# Laboratory results reported in US8916597B2, “Use of pyraclostrobin as safener for triticonazole for controlling harmful fungi” (BASF SE, priority 2005, dated 2014).
# System: bentgrass
# Assay: Seed treatment of bentgrass: ground coverage by emerged plants (safener action)
# Assay type: in vivo
# Protocol: Seeds were treated with the two active compounds individually or with mixtures of both active compounds, and the development of the plants was then observed. When the mixtures were used, the negative effects of one or both mixing partners in the case of individual application were, if at all, observed at a reduced level.
# Seeds of bentgrass were seed-treated with the products and concentrations listed. Triticonazol and Pyraclostrobin were used as 200 g/l FS-formulation.
# Treated sees were planted at the day of treatment and then kept under humid conditions in the greenhouse. 9 days after plating the ground coverage by emerged plants were estimated in percentage.
compound,measurement,setting,value
"COC(=O)N(OC)c1ccccc1COc1ccn(-c2ccc(Cl)cc2)n1 [Pyraclostrobin, pyraclostrobin]",% covered ground,"10 g a.i./100 kg seed of each active compound (200 g/l FS-formulation), greenhouse, humid conditions, ground coverage by emerged plants estimated 9 days after planting, untreated 8.5%",13.3%
same,safener action: negative effect of triticonazole on plant development,mixture versus individual application,negative effect of TTZ can be compensated
